In patent publication US20060128773A1, “Wood preservatives and waterproofing compositions and processes” (priority 2004, published 2006):

How the values were obtained:
[1] = Leaching study of treated wood test blocks into water (Example 2); format: physicochemical
Experimental: Wood test blocks prepared in accordance with Example 1, were subjected to a leaching study.
In this leaching study the following procedure was observed. • 1. The wood test block was placed in 500 ml plastic containers with screw caps. • 2. Water was added to the container to over flowing and the container was sealed. • 3. The containers were stored at room temperature. • 4.

[2] = Leaching study of treated wood test blocks into water (Example 4); format: physicochemical
Experimental: In this example test blocks were prepared in accordance with the procedure of Example 1 and subjected a leaching study using the following procedure. • 1. The wood test blocks were placed in 500 ml plastic containers with screw caps. • 2. Water was added to the containers to over flowing and the container was sealed. • 3. The containers were stored at room temperature.
4. After two days the containers were opened and the leachate was analyzed for active quaternary compound (QAC) using a Hach DR/2400 Spectrophotometer.

LISTERIA MONOCYTOGENES = settings: ATCC # 35152; lowest concentration which inhibits growth in all replicates
PSEUDOMONAS AERUGINOSA [3] = settings: ATCC # 15442; ten-minute contact time
[4] = tested on: METHICILLIAN-RESISTANT STAPHYLOCOCCUS AUREUS; settings: ATCC # 33593; lowest concentration which inhibits growth in all replicates
SALMONELLA CHOLERAESUIS = settings: ATCC # 10708; ten-minute contact time
AS[…] = settings: ATCC # 16424; lowest concentration which inhibits growth in all replicates
CANDIDA ALBICANS = settings: ATCC # 10231; lowest concentration which inhibits growth in all replicates
ST[…] = settings: ATCC # 6538; lowest concentration which inhibits growth in all replicates
PSEUDOMONAS AERUGINOSA [5] = settings: ATCC # 15442; lowest concentration which inhibits growth in all replicates
SERRATIA MARCESANS = settings: ATCC # 13880; lowest concentration which inhibits growth in all replicates
STAPHYLOCOCCUS AUREUS = settings: ATCC # 6538; ten-minute contact time
ESCHERICHIA = settings: ATCC # 11229; lowest concentration which inhibits growth in all replicates
EN[…] = settings: ATCC # 13048; lowest concentration which inhibits growth in all replicates

Substance	leaching of quaternary ammonium compound relative to the ADBAS compound ([1]; Example 2, ratio of averages) [times]	AVERAGE active quaternary compound in leachate, FINAL DATE May 8, 2004 ([1]; average of three blocks, water, room temperature, after two days) [PPM QAC]	leaching relative to the ADBAS compound ([2]; Example 4, ratio of averages) [times]	AVERAGE active quaternary compound in leachate, FINAL DATE Sep. 5, 2004 ([2]; average of three blocks, water, room temperature, start Sep. 1, 2004) [PPM QAC]	Minimum Inhibitory Concentration (MIC) CONCENTRATION (LISTERIA MONOCYTOGENES) [PPM]	AOAC USE-DILUTION VALUES CONCENTRATION (PSEUDOMONAS AERUGINOSA [3]) [PPM]	Minimum Inhibitory Concentration (MIC) CONCENTRATION [4] [PPM]	AOAC USE-DILUTION VALUES CONCENTRATION (SALMONELLA CHOLERAESUIS) [PPM]	Minimum Inhibitory Concentration (MIC) CONCENTRATION (AS[…]) [PPM]	Minimum Inhibitory Concentration (MIC) CONCENTRATION (CANDIDA ALBICANS) [PPM]	Minimum Inhibitory Concentration (MIC) CONCENTRATION (ST[…]) [PPM]	Minimum Inhibitory Concentration (MIC) CONCENTRATION (PSEUDOMONAS AERUGINOSA [5]) [PPM]	Minimum Inhibitory Concentration (MIC) CONCENTRATION (SERRATIA MARCESANS) [PPM]	AOAC USE-DILUTION VALUES CONCENTRATION (STAPHYLOCOCCUS AUREUS) [PPM]	Minimum Inhibitory Concentration (MIC) CONCENTRATION (ESCHERICHIA) [PPM]	Minimum Inhibitory Concentration (MIC) CONCENTRATION (EN[…]) [PPM]
alkyl dimethyl benzyl ammonium chloride [ADBAC]	3.25	45.24	8.1	480.0	–	–	–	–	–	–	–	–	–	–	–	–
alkyl dimethyl benzyl ammonium saccharinate [ADBAS]	–	–	–	–	1	700	0.5	600	10	100	1	100	10	600	10	10
